These results are taken from patent publication US7138425B2, “Phthalimide carboxylic acid derivatives” (Oxford Glycoscience (UK) Ltd., priority 2002, dated 2006).

The pIC50 is the negative decadic logarithm of the IC50, by convention in mol/L.

pIC50: −log10 of the molar value.

The subject of one experiment is human endothelial cells. Kind of experiment: Angiogenesis assay (AngioKit, tubule formation, PECAM-1 staining). Particulars: Endothelial cell, 264 h, AngioKit co-culture, tubule formation on day 11, PECAM-1 staining relative to untreated control, read-out: Inhibition of angiogenesis (IC50). The format is cell-based. An excerpt:
A commercial angiogenesis assay for analysing the angiogenic or anti-angiogenic properties of test compounds (AngioKit catalogue no. ZHA-1000, TCS CellWorks Ltd, Buckingham, U.K) was used. In this assay, human endothelial cells were co-cultured with other human cells in a specifically designed medium. The endothelial cells initially form small islands within the culture matrix. They subsequently proliferate and then enter a migratory phase during which they move through the matrix to form threadlike tubule structures. These gradually join up (by 12–14 days) to form networks of […] tubules which closely resemble a capillary bed structure. These tubules stain positive for von Willebrand's Factor, Platelet Endothelial Cell Adhesion Molecule-1 (PECAM-1 or CD31) and Intercellular Adhesion Molecule-2 (ICAM-2).
The assay is supplied as growing cultures at the earliest stage of tubule formation in a 24 well plate format It is designed so that test compounds and conditioned media can be added to the cultures within individual wells. The resulting effect on tubule formation can then be monitored. Positive and negative test agents are provided in the kit, e.g. Vascular Endothelial Growth Factor (VEGF) and sumarin. All reagents were included as part of the kit and the assay was performed according to the protocol supplied by TCS CellWorks Ltd. Briefly, on day 1, fresh growth medium, medium plus control agent or medium plus test compound was added to the cells and the cultures were incubated at 37° C., 5% CO2. […] The specified medium was changed at days 4, 7 and 9 and the cells were monitored for growth. On day 11, the cells were washed with Dulbecco's Phosphate-Buffered Saline (PBS) and fixed using 70% ethanol (−20° C.) for 30 min at room temperature. After fixing, the cells were washed and treated with blocking buffer, 1% BSA in PBS. The cells were stained for PECAM-1 on the same day, following standard immunohistochemistry procedures well known to those skilled in the art, using mouse anti-human CD31 as the primary antibody and a goat anti-mouse IgG alkaline phosphate conjugate. Tubule formation was quantitatively assessed by measuring PECAM-1 positive staining using the image analysis program “Matrox inspector” to evaluate the percentage tubule staining relative to an untreated control.

The target in the next experiment is T1, human heparanase (Homo sapiens, UniProt Q9Y251).
T1 construct: made in house; host or cells: insect cells
T1 sequence (Q9Y251 158-543 limits assumed): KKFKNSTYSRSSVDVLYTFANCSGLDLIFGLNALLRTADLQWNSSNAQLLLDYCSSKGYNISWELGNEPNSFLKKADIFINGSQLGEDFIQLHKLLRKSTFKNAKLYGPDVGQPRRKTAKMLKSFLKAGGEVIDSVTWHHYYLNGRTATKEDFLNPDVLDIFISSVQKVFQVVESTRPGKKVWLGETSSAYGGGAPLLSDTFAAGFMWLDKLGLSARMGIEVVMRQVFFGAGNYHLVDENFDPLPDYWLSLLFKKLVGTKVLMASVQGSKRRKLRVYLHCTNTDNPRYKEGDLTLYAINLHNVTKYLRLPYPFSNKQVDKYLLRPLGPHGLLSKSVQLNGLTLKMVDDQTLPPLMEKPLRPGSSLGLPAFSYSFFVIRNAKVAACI
T1 sequence (Q9Y251 36-109 limits assumed): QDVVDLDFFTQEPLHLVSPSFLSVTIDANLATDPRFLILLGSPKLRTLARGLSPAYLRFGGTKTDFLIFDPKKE
Kind of experiment: Heparanase assay (bFGF binding to heparan sulfate, plate ELISA). The format is biochemical. The note with it: human heparanase expressed in insect cells, pH 5.5, 2 h at 37° C.; read-out: Inhibition of Heparanase (IC50). How it is done:
The assay is based upon the specific binding of basic fibroblast growth factor (bFGF) to heparan sulfate. […] Heparan sulfate will ordinarly adhere to plastic well plate surfaces. Following cleavage of high molecular weight heparan sulfate by heparanase, the smaller material generated will no longer adhere to the surface of a well plate. Thus, upon addition to the plate of bFGF, heparanase activity can be followed as a reduction in bFGF binding.
Nunc Maxisorp 96-well plates are coated for 16 h at room temperature with 100 μl/well 0.04 mg/ml heparan sulfate in PBS. The wells are then aspirated and blocked for 1 h with 200 μl/well 1% BSA-PBS. Following five washes with 0.01% BSA, 0.05% Tween20 PBS (wash buffer), 100 μl of recombinant human basic FGF (90 ng/ml in 0.1% BSA/PBS) is added per well and the plate is incubated at room temperature for 1 h.
The human heparanase used is expressed in insect cells. The wells are washed again with wash buffer and 100 μl of bFGF antibody-horse radish peroxidase conjugate is added. The plate is then incubated at room temperature for 1 h and subsequently washed five times with wash buffer. 100 μl of TMB peroxidase substrate is added and the colour allowed to develop for 10 min. The reaction is stopped with 50 μl 1M H2SO4 and the colour intensity is read at 450 nm on a plate reader.
For orientation: In an ELISA, binding on a coated surface is turned into a signal by an enzyme label.

On to `COc1ccc(N2C(=O)c3ccc(C(=O)O)cc3C2=O)cc1-c1nc2cc(-c3ccc4c(c3)OCO4)ccc2o1` [Example 105, 2-[4-Methoxy-5-[5-(3,4-methylenedioxyphenyl)benzoxazol-2-yl]phenyl]-1,3-dioxo-2,3-dihydro-1H-isoindole-5-carboxylic acid], for which the pIC50 with human endothelial cells is 5.52.
As to `CCCNc1ccc(N2C(=O)c3ccc(C(=O)O)cc3C2=O)cc1-c1nc2cc(-c3cc4ccccc4s3)ccc2o1` [Example 110, 2-[4-Propylamino-5-[5-(2-benzothiophenyl)benzoxazol-2-yl]phenyl]-1,3-dioxo-2,3-dihydro-1H-isoindole-5-carboxylic acid], the pIC50 at human heparanase is 6.22; in the experiment with human endothelial cells, 5.30.
With `CCCNc1ccc(N2C(=O)c3ccc(C(=O)O)cc3C2=O)cc1-c1nc2ccc(C)cc2o1` [Example 65, 2-[3-(6-Methylbenzoxazol-2-yl)-4-propylaminophenyl]-1,3-dioxo-2,3-dihydro-1H-isoindole-5-carboxylic acid], the pIC50 on human heparanase is 6.10; in the experiment on human endothelial cells, 5.30.
`CCCNc1ccc(N2C(=O)c3ccc(C(=O)O)cc3C2=O)cc1-c1nc2cc(-c3ccc(OC(F)(F)F)cc3)ccc2o1` [Example 116, 2-[4-Propylamino-5-[5-(4-trifluoromethoxy)phenylbenzoxazol-2-yl]phenyl]-1,3-dioxo-2,3-dihydro-1H-isoindole-5-carboxylic acid]: in the experiment with human endothelial cells, the pIC50 was 7.00.
Regarding `COc1ccc(-c2nc3cc(-c4cc5ccccc5o4)ccc3o2)cc1N1C(=O)c2ccc(C(=O)O)cc2C1=O` [Example 15, 2-[2-Methoxy-5-[5-(benzofuran-2-yl)benzoxazol-2-yl]phenyl]-1,3-dioxo-2,3-dihydro-1H-isoindole-5-carboxylic acid], the pIC50 was 6.30 at human heparanase and 6.00 in the experiment on human endothelial cells.
For `COc1ccc(-c2nc3cc(-c4ccc(N(C)C)cc4)ccc3o2)cc1N1C(=O)c2ccc(C(=O)O)cc2C1=O` [Example 97, 2-[2-Methoxy-5-[5-(4-N,N-dimethylaminophenyl)benzoxazol-2-yl]phenyl]-1,3-dioxo-2,3-dihydro-1H-isoindole-5-carboxylic acid], the figures for the pIC50 at human heparanase and in the experiment with human endothelial cells were 6.10 and 5.70, respectively.
On to `COc1ccc(N2C(=O)c3ccc(C(=O)O)cc3C2=O)cc1-c1nc2cc(-c3cc(F)cc(F)c3)ccc2o1` [Example 104, 2-[4-Methoxy-5-[5-(3,5-difluorophenyl)benzoxazol-2-yl]phenyl]-1,3-dioxo-2,3-dihydro-1H-isoindole-5-carboxylic acid], for which the pIC50 in the experiment on human endothelial cells was 6.12.
Regarding `COc1ccc(-c2nc3cc(-c4ccccc4)ccc3o2)cc1N1C(=O)c2ccc(C(=O)O)cc2C1=O` [Example 9, 2-[2-Methoxy-5-(5-phenylbenzoxazol-2-yl)phenyl]-1,3-dioxo-2,3-dihydro-1H-isoindole-5-carboxylic acid], the pIC50 with human endothelial cells is 6.00.
For the compound `CCCNc1ccc(N2C(=O)c3ccc(C(=O)O)cc3C2=O)cc1-c1nc2ccc(F)cc2o1` [Example 66, 2-[3-(6-Fluorobenzoxazol-2-yl)-4-propylaminophenyl]-1,3-dioxo-2,3-dihydro-1H-isoindole-5-carboxylic acid], the pIC50 on human heparanase was 6.10; in the experiment with human endothelial cells, 5.70.
Consider `CCCNc1ccc(N2C(=O)c3ccc(C(=O)O)cc3C2=O)cc1-c1nc2cc(Br)cc(F)c2o1` [Example 71, 2-[3-(5-Bromo-7-fluorobenzoxazol-2-yl)-4-propylaminophenyl]-1,3-dioxo-2,3-dihydro-1H-isoindole-5-carboxylic acid], for which the pIC50 at human heparanase and in the experiment with human endothelial cells was 6.30 each time.
`O=C(O)c1ccc2c(c1)C(=O)N(c1cccc(-c3nc4ccccc4o3)c1)C2=O` [Example 1, 2-[3-(Benzoxazol-2-yl)phenyl]-2,3-dihydro-1,3-dioxo-1H-isoindole-5-carboxylic acid]: in the experiment with human endothelial cells, the pIC50 is 4.40.
Take `CCCNc1ccc(N2C(=O)c3ccc(C(=O)O)cc3C2=O)cc1-c1nc2cc(-c3ccc(F)cc3)ccc2o1` [Example 115, 2-[4-Propylamino-5-[5-(4-fluorophenyl)benzoxazol-2-yl]phenyl]-1,3-dioxo-2,3-dihydro-1H-isoindole-5-carboxylic acid]: the pIC50 in the experiment with human endothelial cells was 6.60.
`CCCNc1ccc(N2C(=O)c3ccc(C(=O)O)cc3C2=O)cc1-c1nc2cc(-c3cc4ccccc4o3)ccc2o1` [Example 108, 2-[4-Propylamino-3-[5-(2-benzofuranyl)benzoxazol-2-yl]phenyl]-1,3-dioxo-2,3-dihydro-1H-isoindole-5-carboxylic acid]: the pIC50 on human heparanase was 6.30; with human endothelial cells, 5.70.
For `O=C(O)c1ccc2c(c1)C(=O)N(c1cccc(-c3nc4cc5ccccc5cc4o3)c1)C2=O` [Example 2, 2-[3-(Naphth[2,3-d]oxazol-2-yl)phenyl]-2,3-dihydro-1,3-dioxo-1H-isoindole-5-carboxylic acid], in that order: 6.15 and 5.30.
For `COc1ccc(-c2ccc3oc(-c4ccc(OC)c(N5C(=O)c6ccc(C(=O)O)cc6C5=O)c4)nc3c2)cc1` [Example 27, 2-[2-Methoxy-5-[5-(4-methoxy)phenylbenzoxazol-2-yl]phenyl]-1,3-dioxo-2,3-dihydro-1H-isoindole-5-carboxylic acid], the pIC50 in the experiment with human endothelial cells is 4.82.
As for `CCCNc1ccc(N2C(=O)c3ccc(C(=O)O)cc3C2=O)cc1-c1nc2cc(-c3ccc(Cl)cc3)ccc2o1` [Example 112, 2-[4-Propylamino-5-[5-(4-chlorophenyl)benzoxazol-2-yl]phenyl]-1,3-dioxo-2,3-dihydro-1H-isoindole-5-carboxylic acid], the pIC50 in the experiment with human endothelial cells is 5.70.
For `COc1ccc(-c2nc3cc(-c4cc5ccccc5s4)ccc3o2)cc1N1C(=O)c2ccc(C(=O)O)cc2C1=O` [Example 92, 2-[2-Methoxy-5-[5-(2-benzothiophenyl)benzoxazol-2-yl]phenyl]-1,3-dioxo-2,3-dihydro-1H-isoindole-5-carboxylic acid], the pIC50 at human heparanase is 6.40; in the experiment with human endothelial cells, 6.70.
